Experimental data as given in the NIST ThermoML archive (doi:10.1016/j.jct.2019.01.004).
± gives the expanded uncertainty stated by the source.

Details: Liquid, Ebulliometric method (Recirculating still)

vapor or sublimation pressure (337.68 K) | vapor or sublimation pressure (352.62 K) | Structure (SMILES)
101.3 ± 3.7 kPa |  | CO [methanol]
 | 101.3 ± 3.7 kPa | CCC(=O)OC [methyl propanoate]
